Test results taken from article PMC10363480 (Plant Communications, 2023).

system: mitochondria or chloroplast of Chlamydomonas reinhardtii; assay: Subcellular localization of Venus reporter by epifluorescence microscopy (manual targeting assignment); assay type: cell-based; settings: manual targeting assignment of the Venus reporter construct in Chlamydomonas: Neither / Mitochondria / Chloroplast / Dual, (partial) = partial targeting
Summary of the method: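 Targeting peptide variants fused to Venus reporter, transformed into Chlamydomonas wild-type T222+ (CC-5101); three independent transformant lines per construct. Localization assigned manually from epifluorescence images using chlorophyll autofluorescence for chloroplast and 0.1 μM MitoTracker Red CMXRos (30 min) for mitochondria. Automated segmentation used for validation.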

**Q.** “MQVTMKSSAVSGQRVGGARVATRLTQTAESFRGVSSQFFDAPNGPSVKQVLIEDEW [c.CH.R.m]” was tested. Which Localisation did it give?
**A.** The Localisation was “Neither”.

**Q.** “MQVTMKSSAVSGQRVMLKKVGQSLVPFAKAGSVRRAQLQVVASSRKQMGRWRSIDAGVDASDDQ [c.MH.K.c]” was tested. Which Localisation did it give?
**A.** Its Localisation is “Chloroplast”.

**Q.** Which Localisation does the source give for “MQVTMKSSAVSGQRVMLKRVGQSLVPFARAGSVRRAQLQVVASSRKQMGRWRSIDAGVDASDDQ [c.MH.R.c]” here?
**A.** Its Localisation is “Chloroplast”.

**Q.** “MGWIRDFGRRIERVGQHTRDATIQTIAVAQQAANVAATLRG [S1D.R]” was tested. Which Localisation did it give?
**A.** The Localisation was “Neither”.

**Q.** With “MGLLLDTLRGAARDIAGIALERLRCRITGCRPLTQTAESFRGVSSQFFDAPNGPSVKQVLIEDEW [R2G.R.m]” as the sequence, how does the Localisation read?
**A.** The Localisation was “Mitochondria”.

**Q.** How did the Localisation turn out when “MQVTMKSSAVSGQRVALWRTMLRRLGTMALHAGRAAFGAAADTISQ [c.DDM.R]” was run?
**A.** Its Localisation is “Mitochondria (partial)”.

**Q.** “MGLLLDTLRGAARDIAGIALERLRCRITGCRPSVRRAQLQVVASSRKQMGRWRSIDAGVDASDDQ [R2G.R.c]” was tested. Which Localisation did it give?
**A.** The Localisation was “Neither”.

same assay, conditions: peptide-Venus reporter construct expressed in Chlamydomonas reinhardtii; manual targeting assignment (Neither / Mitochondria / Chloroplast / Dual; partial = partial targeting)

**Q.** With “MALWMTLLRRVLRAAARAALNAVLVGANASVRRAQLQVVASSRKQMGRWRSIDAGVDASDDQ [DS4.R.c]” as the sequence, how does the Localisation read?
**A.** Its Localisation is “Neither”.

**Q.** With “MWLSRTARRLENSARRRISEGIAIAIRGGSRLTQTAESFRGVSSQFFDAPNGPSVKQVLIEDEW [CP3.R.m]” as the sequence, how does the Localisation read?
**A.** The Localisation was “Mitochondria”.

**Q.** With “MGLFSKFNKKKIKSGLIKIIKTAGKEAGLEALRTGIDVIGCKIKGECLTQTAESFRGVSSQFFDAPNGPSVKQVLIEDEW [E1S.K.m]” as the sequence, how does the Localisation read?
**A.** The Localisation was “Neither”.

**Q.** With “MKYYGNGVHCTRSGCSVNWGEAFSAGVHRLANGGNGFWSVRRAQLQVVASSRKQMGRWRSIDAGVDASDDQ [LCA.R.c]” as the sequence, how does the Localisation read?
**A.** The Localisation was “Chloroplast (partial)”.

**Q.** “MVNYGNGVSCSKTKCSVNWGIITHQAFRVTSGVASG [B15.K]” was tested. Which Localisation did it give?
**A.** The Localisation was “Neither”.

**Q.** “MGLFSRFNRRRIRSGLIRIIRTAGREAGLEALRTGIDVIGCRIRGEC [E1S.R]” was tested. Which Localisation did it give?
**A.** Its Localisation is “Neither”.

**Q.** For “MGLFSKFNKKKIKSGLIKIIKTAGKEAGLEALRTGIDVIGCKIKGECSVRRAQLQVVASSRKQMGRWRSIDAGVDASDDQ [E1S.K.c]”, which Localisation is on record?
**A.** The Localisation was “Neither”.

**Q.** How did the Localisation turn out when “MQVTMKSSAVSGQRVMVNYGNGVSCSRTRCSVNWGIITHQAFRVTSGVASG [c.B15.R]” was run?
**A.** The Localisation was “Chloroplast”.

**Q.** Which Localisation does the source give for “MQVTMKSSAVSGQRVGIGKFLHSAKKFGKAFVGEIMNSLTQTAESFRGVSSQFFDAPNGPSVKQVLIEDEW [c.MII.K.m]” here?
**A.** Its Localisation is “Mitochondria (partial)”.

**Q.** How did the Localisation turn out when “MGIGKFLHSAKKFGKAFVGEIMNSLTQTAESFRGVSSQFFDAPNGPSVKQVLIEDEW [MII.K.m]” was run?
**A.** The Localisation was “Mitochondria (partial)”.

**Q.** How did the Localisation turn out when “MFLPLLAGLAANFLPKIFCKITRKCLTQTAESFRGVSSQFFDAPNGPSVKQVLIEDEW [B1E.K.m]” was run?
**A.** The Localisation was “Neither”.

same assay, conditions: targeting of the Venus reporter fused to the peptide, expressed in Chlamydomonas reinhardtii; manual assignment from epifluorescence microscopy; full or partial

**Q.** “MGKIPVKAIKKAGAAIGKGLRAINIASTAHDVYSFFKPKHKKKLTQTAESFRGVSSQFFDAPNGPSVKQVLIEDEW [SIM.K.m]” was tested. Which Localisation did it give?
**A.** The Localisation was “Neither”.

**Q.** How did the Localisation turn out when “MQVTMKSSAVSGQRVALWMTLLRRVLRAAARAALNAVLVGANALTQTAESFRGVSSQFFDAPNGPSVKQVLIEDEW [c.DS4.R.m]” was run?
**A.** The Localisation was “Neither”.

**Q.** Which Localisation does the source give for “MQVTMKSSAVSGQRVMGKIPVKAIKKAGAAIGKGLRAINIASTAHDVYSFFKPKHKKK [c.SIM.K]” here?
**A.** Its Localisation is “Chloroplast (partial)”.

**Q.** Which Localisation does the source give for “MQVTMKSSAVSGQRVMGLLLDTLKGAAKDIAGIALEKLKCKITGCKPLTQTAESFRGVSSQFFDAPNGPSVKQVLIEDEW [c.R2G.K.m]” here?
**A.** Its Localisation is “Mitochondria”.

**Q.** “MKYYGNGVSCNKKGCSVDWGKAIGIIGNNAAANLTTGGKAGWKG [EHF.K]” was tested. Which Localisation did it give?
**A.** The Localisation was “Neither”.

**Q.** With “MGKIPVKAIKKAGAAIGKGLRAINIASTAHDVYSFFKPKHKKK [SIM.K]” as the sequence, how does the Localisation read?
**A.** The Localisation was “Neither”.

**Q.** How did the Localisation turn out when “MQVTMKSSAVSGQRVNIVVYWNFTLWHMDINARNAGCDGEGSLTQTAESFRGVSSQFFDAPNGPSVKQVLIEDEW [c.RP1.K.m]” was run?
**A.** Its Localisation is “Neither”.

**Q.** With “MALWKTMLKKLGTMALHAGKAAFGAAADTISQSVRRAQLQVVASSRKQMGRWRSIDAGVDASDDQ [DDM.K.c]” as the sequence, how does the Localisation read?
**A.** Its Localisation is “Neither”.
